According to ChEMBL document CHEMBL1156078, “Structure-activity relationship (SAR) studies of 3-(2-amino-ethyl)-5-(4-ethoxy-benzylidene)-thiazolidine-2,4-dione: development of potential substrate-specific ERK1/2 inhibitors” (Bioorg Med Chem Lett, 2009):
Active and inactive are the calls of the source. The calls are words filed in the database; no cut-off is given here.

Experiments:
[1] = target: Ribosomal protein S6 kinase alpha-1 (Homo sapiens) (UniProt Q15418); assay: Inhibition of Rsk1 phosphorylation in PMA-stimulated human U937 cells at 10 to 50 uM after 3 hrs by Western blotting; type: cell-based; settings: U-937
Ribosomal protein S6 kinase alpha-1 (Homo sapiens), sequence (Q15418 whole entry): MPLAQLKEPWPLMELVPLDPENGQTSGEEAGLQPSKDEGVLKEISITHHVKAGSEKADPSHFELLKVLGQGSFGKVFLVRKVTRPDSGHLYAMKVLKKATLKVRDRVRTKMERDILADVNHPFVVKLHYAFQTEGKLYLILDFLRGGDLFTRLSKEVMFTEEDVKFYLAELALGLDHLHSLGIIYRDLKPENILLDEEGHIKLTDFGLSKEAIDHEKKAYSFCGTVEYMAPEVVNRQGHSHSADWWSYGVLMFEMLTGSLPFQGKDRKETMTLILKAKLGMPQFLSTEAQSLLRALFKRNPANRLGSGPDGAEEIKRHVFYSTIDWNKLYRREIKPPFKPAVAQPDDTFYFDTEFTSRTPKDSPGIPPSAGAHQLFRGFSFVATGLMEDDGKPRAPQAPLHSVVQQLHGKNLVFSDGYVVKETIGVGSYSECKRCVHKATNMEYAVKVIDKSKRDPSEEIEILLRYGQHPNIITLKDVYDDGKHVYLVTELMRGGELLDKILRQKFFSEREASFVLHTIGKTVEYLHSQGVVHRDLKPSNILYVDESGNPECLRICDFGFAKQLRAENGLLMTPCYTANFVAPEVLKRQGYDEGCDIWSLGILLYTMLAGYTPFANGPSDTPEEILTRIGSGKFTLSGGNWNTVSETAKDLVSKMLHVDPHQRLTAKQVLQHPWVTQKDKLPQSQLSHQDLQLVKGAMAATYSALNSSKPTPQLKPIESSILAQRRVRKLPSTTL

[2] = target: T1, Mitogen-activated protein kinase; ERK1/ERK2 (Homo sapiens) (UniProt P27361+P28482); assay: Inhibition of ERK1/2 phosphorylation in PMA-stimulated human U937 cells at 50 uM after 3 hrs by Western blotting; type: cell-based; settings: U-937
T1 sequence (P27361 whole entry, looked up): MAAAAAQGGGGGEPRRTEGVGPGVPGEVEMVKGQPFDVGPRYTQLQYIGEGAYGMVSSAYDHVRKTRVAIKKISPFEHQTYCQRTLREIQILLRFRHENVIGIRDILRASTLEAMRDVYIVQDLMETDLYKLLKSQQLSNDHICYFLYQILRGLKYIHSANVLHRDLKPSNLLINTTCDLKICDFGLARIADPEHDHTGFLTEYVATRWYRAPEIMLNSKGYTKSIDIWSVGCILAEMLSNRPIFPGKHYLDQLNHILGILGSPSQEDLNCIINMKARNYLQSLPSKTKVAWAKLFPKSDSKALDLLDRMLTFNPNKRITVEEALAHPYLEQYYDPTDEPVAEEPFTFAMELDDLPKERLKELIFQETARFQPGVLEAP
T1 sequence (P28482 whole entry, looked up): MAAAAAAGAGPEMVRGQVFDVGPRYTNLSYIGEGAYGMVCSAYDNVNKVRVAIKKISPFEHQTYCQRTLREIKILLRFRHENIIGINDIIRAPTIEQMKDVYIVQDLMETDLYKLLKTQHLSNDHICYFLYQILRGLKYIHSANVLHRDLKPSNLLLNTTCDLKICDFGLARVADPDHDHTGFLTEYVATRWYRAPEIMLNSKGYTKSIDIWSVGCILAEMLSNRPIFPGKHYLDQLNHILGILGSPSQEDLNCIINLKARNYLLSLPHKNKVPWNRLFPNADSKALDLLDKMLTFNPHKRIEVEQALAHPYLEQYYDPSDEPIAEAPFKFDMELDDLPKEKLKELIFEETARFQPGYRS

[3] = target: Dual specificity mitogen-activated protein kinase kinase; MEK1/2 (Homo sapiens) (UniProt P36507+Q02750); assay: Inhibition of MEK1/2 phosphorylation in PMA-stimulated human U937 cells at 50 uM after 3 hrs by Western blotting; type: cell-based; settings: U-937
Dual specificity mitogen-activated protein kinase kinase; MEK1/2 (Homo sapiens), sequence (P36507 whole entry, looked up, the tested form may be a part): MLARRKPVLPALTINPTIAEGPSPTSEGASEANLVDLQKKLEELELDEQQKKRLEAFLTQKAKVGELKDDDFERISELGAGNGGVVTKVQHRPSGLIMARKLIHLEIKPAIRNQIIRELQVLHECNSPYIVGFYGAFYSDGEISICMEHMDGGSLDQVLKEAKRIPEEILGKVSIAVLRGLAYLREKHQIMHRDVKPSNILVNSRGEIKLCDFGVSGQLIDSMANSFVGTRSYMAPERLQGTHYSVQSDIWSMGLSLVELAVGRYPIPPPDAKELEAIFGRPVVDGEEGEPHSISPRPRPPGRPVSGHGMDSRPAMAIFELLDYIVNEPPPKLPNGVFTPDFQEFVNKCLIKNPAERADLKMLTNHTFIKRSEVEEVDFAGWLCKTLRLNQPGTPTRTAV
Dual specificity mitogen-activated protein kinase kinase; MEK1/2 (Homo sapiens), sequence (Q02750 whole entry, looked up, the tested form may be a part): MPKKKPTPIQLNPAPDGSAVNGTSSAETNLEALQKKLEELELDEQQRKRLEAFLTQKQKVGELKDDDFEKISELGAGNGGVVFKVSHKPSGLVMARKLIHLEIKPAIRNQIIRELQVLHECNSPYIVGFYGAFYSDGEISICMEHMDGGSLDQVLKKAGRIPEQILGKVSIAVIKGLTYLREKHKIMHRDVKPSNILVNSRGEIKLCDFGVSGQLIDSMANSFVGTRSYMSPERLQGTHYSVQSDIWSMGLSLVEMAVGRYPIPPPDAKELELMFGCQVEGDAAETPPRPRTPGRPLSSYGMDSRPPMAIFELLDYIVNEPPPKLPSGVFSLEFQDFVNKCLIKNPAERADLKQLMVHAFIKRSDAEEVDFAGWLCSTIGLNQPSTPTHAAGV

[4] = target: T2, ETS domain-containing protein Elk-1 (Homo sapiens) (UniProt P19419); assay: Inhibition of Elk1 phosphorylation in PMA-stimulated human U937 cells at 50 uM after 3 hrs by Western blotting; type: cell-based; settings: U-937
T2 sequence (whole entry): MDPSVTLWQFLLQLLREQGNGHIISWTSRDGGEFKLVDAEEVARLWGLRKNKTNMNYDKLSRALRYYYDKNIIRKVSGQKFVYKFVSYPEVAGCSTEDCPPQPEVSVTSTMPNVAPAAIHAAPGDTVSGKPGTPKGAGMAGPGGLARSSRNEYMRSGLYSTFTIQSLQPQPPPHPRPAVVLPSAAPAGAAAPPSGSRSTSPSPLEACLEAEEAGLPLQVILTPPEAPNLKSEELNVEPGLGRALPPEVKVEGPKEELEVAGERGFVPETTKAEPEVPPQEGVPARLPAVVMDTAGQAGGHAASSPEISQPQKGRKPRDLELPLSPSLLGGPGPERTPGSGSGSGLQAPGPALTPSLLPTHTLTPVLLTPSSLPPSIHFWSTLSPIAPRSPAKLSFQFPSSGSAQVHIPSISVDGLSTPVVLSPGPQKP

[5] = target: MAP kinase p38 (Homo sapiens) (UniProt O15264+Q15759+Q16539+P53778); assay: Inhibition of p38 phosphorylation in PMA-stimulated human U937 cells at 50 uM after 3 hrs by Western blotting; type: cell-based; settings: U-937
U-937 [6] = assay: Induction of apoptosis in human U937 assessed as loss of mitochondrial membrane potential after 18 hrs by DiOC6 uptake assay; type: functional, cell-based
[7] = target: Ribosomal protein S6 kinase alpha-1 (Homo sapiens) (UniProt Q15418); assay: Inhibition of Rsk1 phosphorylation in PMA-stimulated human U937 cells at 50 uM after 3 hrs by Western blotting; type: cell-based; settings: U-937
[8] = target: T1, Mitogen-activated protein kinase; ERK1/ERK2 (Homo sapiens); assay: Inhibition of ERK1/2 phosphorylation in PMA-stimulated human U937 cells at 10 to 50 uM after 3 hrs by Western blotting; type: cell-based; settings: U-937
[9] = target: Mitogen-activated protein kinase 1 (Homo sapiens) (UniProt P28482); assay: Inhibition of recombinant ERK2-mediated myelin basic protein phosphorylation at 50 uM after 30 mins by SDS-PAGE
Mitogen-activated protein kinase 1 (Homo sapiens), sequence (P28482 whole entry): as the sequence (P28482 whole entry, looked up) above

[10] = Inhibition of JNK phosphorylation
U-937 [11] = assay: Antiproliferative activity human U937 cells by [3H]thymidine incorporation assay; type: functional, cell-based
[12] = target: T1, Mitogen-activated protein kinase; ERK1/ERK2 (Homo sapiens); assay: Inhibition of ERK1/2 phosphorylation in EGF-stimulated human SKOV3 cells; type: cell-based; settings: SK-OV-3
U-937 [13] = assay: Cytotoxicity against human U937 cells assessed as cell viability up to 30 uM after 24 hrs by MTT assay; type: functional, cell-based
[14] = Inhibition of MEK phosphorylation

For CCOc1ccc(/C=C2\SC(=O)N(CCN(C)C)C2=O)cc1, the inhibition [1] was “inactive”.

With NCCN1C(=O)S/C(=C\[C@H](O)[C@@H](O)c2ccccc2)C1=O the inhibition [2] was “inactive”.

In the case of NCCN1C(=O)S/C(=C\c2ccc3c(c2)OCCO3)C1=O, the inhibition [3] is reported as “Active”, the inhibition [4] is reported as “Active” and the inhibition [2] is reported as “Active”. For the same molecule, the inhibition [5] was “Active”, the Activity (U-937 [6]) was “inactive” and the inhibition [7] was “Active”.

In the case of CCOc1ccccc1/C=C1\SC(=O)N(CCN)C1=O, the inhibition [8] is reported as “inactive”, the inhibition [9] is reported as “inactive” and the inhibition [1] is reported as “Active”. The inhibition [4] was “Active”, the inhibition [10] was “inactive” and the Activity (U-937 [11]) was “Dose-dependent effect”. For the same molecule, the inhibition [12] was “inactive”, the inhibition [5] was “inactive” and the Activity (U-937 [6]) was “Dose-dependent effect”. The Activity (U-937 [13]) was “inactive” and the inhibition [14] was “inactive”.

With NCCN1C(=O)S/C(=C\c2cccc(F)c2)C1=O the inhibition [1] was “inactive”.

In the case of Cc1ccc(/C=C2\SC(=O)N(CCN)C2=O)cc1, the inhibition [8] is reported as “inactive” and the inhibition [1] is reported as “inactive”.

With CCOc1cccc(/C=C2\SC(=O)N(CCN)C2=O)c1 the inhibition [8] was “inactive” and the inhibition [1] was “inactive”.

For NCCN1C(=O)S/C(=C\c2ccc(-c3ccc(Cl)cc3)cc2)C1=O, the inhibition [8] was “inactive” and the inhibition [1] was “Active”.

With CCOc1ccc(/C=C2\SC(=O)N(CCN)C2=O)cc1 the inhibition [9] was “inactive”, the inhibition [10] was “inactive” and the inhibition [2] was “inactive”. The inhibition [12] was “inactive”, the inhibition [5] was “inactive” and the inhibition [7] was “Active”. For the same molecule, the Activity (U-937 [13]) was “inactive” and the inhibition [14] was “inactive”.

In the case of NCCN1C(=O)S/C(=C\c2cccc([N+](=O)[O-])c2)C1=O, the inhibition [1] is reported as “inactive”.

With CN(C)CCN1C(=O)S/C(=C\C/C=C/c2ccccc2)C1=O the inhibition [4] was “Active”, the inhibition [2] was “Active” and the inhibition [5] was “inactive”. The inhibition [7] was “Active”.

In the case of NCCN1C(=O)S/C(=C\c2cccc3ccccc23)C1=O, the inhibition [3] is reported as “Active”, the inhibition [4] is reported as “Active” and the inhibition [2] is reported as “Active”. For the same molecule, the inhibition [5] was “Active”, the Activity (U-937 [6]) was “inactive” and the inhibition [7] was “Active”.

For NCCN1C(=O)S/C(=C\c2ccc([N+](=O)[O-])cc2)C1=O, the inhibition [1] was “inactive”.

In the case of NCCN1C(=O)S/C(=C\c2ccc(F)cc2)C1=O, the inhibition [1] is reported as “inactive”.

For NCCN1C(=O)S/C(=C\c2ccccc2)C1=O, the inhibition [8] was “inactive” and the inhibition [1] was “inactive”.

For CCOc1ccc(/C=C2\SC(=O)N(CCNC(C)=O)C2=O)cc1, the inhibition [1] was “inactive”.

In the case of COc1ccc(/C=C2\SC(=O)N(CCN)C2=O)cc1, the inhibition [8] is reported as “inactive” and the inhibition [1] is reported as “inactive”.
